Measured values: patent US20130183266A1, “COMPOUNDS AND METHODS FOR THE TREATMENT OR PREVENTION OF FLAVIVIRUS INFECTIONS” (Vertex Pharmaceuticals Incorporated, priority 2010, published 2013)

Key:
[1] = test system: HCV replicon (genotype 1b) in Huh7 hepatoma cell line ET; assay: microbe, parasite or virus in culture; type: cell-based; details: Hepatitis C virus, Huh-7, 96 h, read-out: HCV-Replicon-1b- IC50
[2] = test system: HCV sub-genomic replicon of genotype 1a in replicon cell line W11.8; assay: microbe, parasite or virus in culture; type: cell-based; details: Hepatitis C virus, W11.8, 96 h, read-out: HCV-Replicon-ELISA-1a-IC50

SMILES	IC50 [1]	IC50 [2]
[2H]c1c([2H])c([2H])c(-c2cc(N(C(=O)C3CCC(C)CC3)[C@H]3CC[C@H](O)CC3)c(C(=O)O)s2)c([2H])c1[2H] (stereo partly drawn) [Compound 1, 3-[(trans-4-Hydroxy-cyclohexyl)-(trans-4-methylcyclohexanecarbonyl)-amino]-5-d5-phenyl-thiophene-2-carboxylic acid]	100 to 1000 nM	–
[2H][C@]1(O)CC[C@H](N(C(=O)C2CCC(C)CC2)c2cc(C#CC(C)(C)C)sc2C(=O)O)CC1 (stereo partly shown) [Compound 3]	< 100 nM	< 100 nM
[2H][C@]1(O)CC[C@H](N(C(=O)C2CCC(C)CC2)c2cc(-c3ccccc3)sc2C(=O)O)CC1 (stereo partly shown) [Compound 4]	100 to 1000 nM	–
